Results on 22 molecules are retold here after PubChem BioAssay (NCI).

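Compound exposure: 48 hours, 5 concentrations, 96-well plates. GI50: concentration for 50% inhibition of growth. TGI: concentration producing complete growth inhibition.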

Test systems include XF 498 CNS; M19-MEL melanoma; DLD-1 colon; MDA-MB-435; T-47D breast; MCF7 breast; MDA-N.
Holding throughout (experiment): NCI anticancer screen, dose series, 48 h

With `NC(=S)NN/C=C(\C=Nc1ccccc1)[N+](=O)[O-]`, the TGI with XF 498 CNS, in the experiment with M19-MEL melanoma and with DLD-1 colon was above 100 µM in each case.

`O=c1c(F)cn(Cc2ccccc2CCl)c(=O)n1Cc1ccccc1CCl`: the GI50 in the experiment with MDA-MB-435 was 1.68 µM; in the experiment on T-47D breast, 1.57 µM; in the experiment with MCF7 breast, 1.16 µM. Also, the TGI with MDA-MB-435 came to 3.4 µM; in the experiment on T-47D breast it was 4.11 µM; in the experiment with MCF7 breast it was 6.11 µM.

For `CCOC(=O)C1SC(=Nc2ccc(Cl)cc2)N=C1C` (stereo not given), the TGI with XF 498 CNS stood at 34.2 µM; with M19-MEL melanoma, 33 µM; in the experiment on DLD-1 colon it was 28.7 µM.

In the case of `O=C(Nc1ccc(Cl)c(Cl)c1)NS(=O)(=O)c1cnccc1Oc1ccc(F)cc1`, the figures for the GI50 in the experiment on MDA-MB-435, in the experiment with T-47D breast and in the experiment on MCF7 breast were 2.98 µM, 2.8 µM and 2.37 µM, respectively. In addition, the TGI with MDA-MB-435 amounted to 12.2 µM; in the experiment with T-47D breast it was 8.54 µM; in the experiment on MCF7 breast, 7.8 µM.

Regarding `C(=N\Nc1nnn(Cc2ccccc2)n1)/c1ccccc1`, the GI50 was 0.367 µM in the experiment on MDA-MB-435, 4.04 µM in the experiment on T-47D breast and 2.41 µM in the experiment on MCF7 breast. In addition, the TGI with MDA-MB-435 is 2.76 µM; in the experiment with T-47D breast, above 100 µM; with MCF7 breast, above 64.2 µM.

With `C=C1C(=O)O[C@H]2[C@H]1CC/C(C=Nc1c(N)cc(C(F)(F)F)cc1Br)=C\CC[C@@]1(C)O[C@@H]21`, the GI50 with MDA-MB-435 is 1.86 µM; in the experiment on T-47D breast it was 1.45 µM; with MCF7 breast, 0.982 µM. Moreover, the TGI was found to be 5.74 µM with MDA-MB-435, 3.42 µM with T-47D breast and 4.48 µM in the experiment with MCF7 breast.

As for `CC(=O)O[C@H]1CCc2c(cc(N)c3c2C(=O)C[C@]2(C)C([C@H](C)CCCC(C)C)CCC32C)C1(C)C` (stereo not given in full), the TGI with MDA-MB-435, in the experiment on T-47D breast, in the experiment on MCF7 breast and in the experiment on MDA-N was above 100 µM each time.

On to `C=C1C(=O)O[C@H]2[C@H]1CC/C(COC(=O)NCC(C)c1ccc(CC(C)C)cc1)=C\CC[C@@]1(C)O[C@@H]21` (stereo not given in full), for which the GI50 in the experiment on MDA-MB-435 is 1.24 µM; in the experiment with T-47D breast, 2.2 µM; in the experiment with MCF7 breast, 0.902 µM. The TGI with MDA-MB-435 stood at 4.86 µM; in the experiment with T-47D breast, 7.83 µM; in the experiment with MCF7 breast, 4.18 µM.

Regarding `CSC1=Nc2ccccc2N=C(c2ccc(Cl)cc2)C1`, the TGI in the experiment on XF 498 CNS, in the experiment with M19-MEL melanoma and with DLD-1 colon was above 100 µM throughout.

Turning to `CC(C)CCC1(CCN)C(=O)NC(=O)NC1=O`, the TGI with MDA-MB-435, in the experiment on T-47D breast, with MCF7 breast and with MDA-N was above 100 µM throughout.

As to `Cc1cc(I)cc(CN(C)CCCN2CCCC2)c1O`, the GI50 in the experiment on MDA-MB-435 is 12.9 µM; in the experiment on T-47D breast, 19 µM; in the experiment on MCF7 breast it was 12.8 µM. Besides, the TGI turned out to be 28.6 µM in the experiment on MDA-MB-435, 57.2 µM with T-47D breast and 29.5 µM with MCF7 breast.

For `COC(=O)C1(C)Cc2cc(OC(C)=O)c(OC(C)=O)cc2N1` (stereo not given), the GI50 is 6.29 µM with MDA-MB-435, 4.55 µM with T-47D breast and 3.74 µM in the experiment on MCF7 breast. The results for the TGI in the experiment with MDA-MB-435, in the experiment on T-47D breast and in the experiment with MCF7 breast were 61.5 µM, above 37.8 µM and 21.6 µM, respectively.

`O=S(=O)(NCCCNc1nccc(-c2c(-c3ccc(F)cc3)nc3sccn23)n1)c1ccc2ccccc2c1`: the GI50 with MDA-MB-435 is 3.67 µM; in the experiment on T-47D breast, 2.85 µM; in the experiment with MCF7 breast, 3.71 µM. The TGI in the experiment with MDA-MB-435, with T-47D breast and with MCF7 breast was above 100 µM each time.

For the molecule `COC(=O)C(/C(=N\O)C(=O)Nc1cccc(Cl)c1C)c1cnc2ccccc2n1` (stereo not given), the TGI with MDA-MB-435, in the experiment with T-47D breast, in the experiment on MCF7 breast and in the experiment with MDA-N was above 100 µM in each case.

Turning to `O=C1CCCCN1CCCCC#Cc1cccc(C#Cc2cccnc2)c1`, the GI50 in the experiment on MDA-MB-435 is 28.9 µM; in the experiment on T-47D breast, 5.66 µM; in the experiment on MCF7 breast, 30.4 µM. The TGI in the experiment with MDA-MB-435 was above 100 µM; with T-47D breast, 26 µM; with MCF7 breast it was above 100 µM.

For the molecule `CCN(C(=O)/C=C/c1ccco1)c1ccccc1`, the TGI in the experiment with MDA-MB-435, in the experiment with T-47D breast, with MCF7 breast and in the experiment on MDA-N was above 100 µM in each case.

For `COc1ccc(C(=O)c2ccc([As]=O)cc2)cc1` (stereo not given), the values for the GI50 with MDA-MB-435, with T-47D breast and in the experiment with MCF7 breast were 0.121 µM, 0.0288 µM and 0.0212 µM, respectively. Also, the TGI in the experiment on MDA-MB-435 amounted to 0.254 µM; with T-47D breast it was 0.204 µM; in the experiment on MCF7 breast it was 0.136 µM.

With `CC(C)(C)OC(=O)NCCCCCCCn1c2c(c3ccccc3c1=O)C(=O)c1ccccc1-2`, the GI50 in the experiment on MDA-MB-435 was 82 µM; with T-47D breast, 16.4 µM; with MCF7 breast it was 55.4 µM. The figures for the TGI with MDA-MB-435, in the experiment with T-47D breast and in the experiment on MCF7 breast were above 100 µM, 78.1 µM and above 100 µM, respectively.

For `C=C1C(O)CC[C@]2(C)C1C1OC(C)(C)O[C@]13CC(=O)C(C)=C([C@H]1OC(C)(C)OC12)C3(C)C` (stereo not given in full), the TGI in the experiment on MDA-MB-435, in the experiment on T-47D breast and with MCF7 breast was above 100 µM each time.

Take `CN(C)C(=O)O[C@H]1CN[C@H](C#Cc2cc3ncnc(Nc4ccc(OCc5cccc(F)c5)c(Cl)c4)c3s2)C1`: the GI50 in the experiment on MDA-MB-435 is above 25 µM; in the experiment on T-47D breast, 2.98 µM; in the experiment on MCF7 breast, 14.6 µM. In addition, the TGI with MDA-MB-435, in the experiment with T-47D breast and in the experiment on MCF7 breast was above 25 µM in each case.

Consider `CC(=O)/C(=C/c1ccccc1F)C(=O)c1ccccc1`, for which the TGI with MDA-MB-435, with T-47D breast, in the experiment with MCF7 breast and in the experiment with MDA-N was above 100 µM in each case.

Regarding `O=c1oc2ccc(I)cc2c(=O)n1-c1ccc(Cl)cc1F`, the GI50 in the experiment on MDA-MB-435 was 1.9 µM; in the experiment on T-47D breast it was 1.26 µM; in the experiment with MCF7 breast it was 2.36 µM. The results for the TGI with MDA-MB-435, in the experiment with T-47D breast and in the experiment with MCF7 breast were 10.3 µM, 6.44 µM and 36.5 µM, respectively.
